The nature of series [1]: Solubility.
Series [2] in a line: Release of parent in human plasma. The series is classed as in vitro ADME. The settings on record: prodrug conversion to bioactive parent.
Series [3] in a line: physchem.

As to `CCN(CC)Cc1ccc(C(=O)OCO[C@@](Cn2cncn2)(c2ccc(F)cc2F)[C@@H](C)c2nc(-c3ccc(C#N)cc3)cs2)cc1` [Example 1, (2R,3R)-3-[4-(4-cyanophenyl)thiazol-2-yl]-2-(2,4-difluorophenyl)-1-(1H-1,2,4-triazol-1-yl)-2-[[p-(N,N-diethylaminomethyl)benzoyloxy]methoxy]butane], the solubility in series [1] is greater than 1000 µg/mL. The “Release of Parent in Human Plasma” value in series [2] is given as “Yes”.

Turning to `C[C@@H](c1nc(-c2ccc(C#N)cc2)cs1)C(Cn1cncn1)(OP(=O)([O-])[O-])c1ccc(F)cc1F.[Na+].[Na+]` (some centres unmarked) [Example 7 of WO 97/28169], the solubility in series [1] is greater than 1000 µg/mL. Also, the “Release of Parent in Human Plasma” value in series [2] is given as “No”.

Regarding `C[C@@H](c1nc(-c2ccc(C#N)cc2)cs1)[C@](O)(Cn1cncn1)c1ccc(F)cc1F` [Parent, (2R,3R)-3-[4-(4-cyanophenyl)thiazol-2-yl]-2-(2,4-difluorophenyl)-1-(1H-1,2,4-triazol-1-yl)-butan-2-ol], the solubility in series [3] is less than 6 µg/mL.

One may read the solubility as the dissolved amount per volume that the medium holds. High values mean a readily soluble substance, low ones a poorly soluble substance.

The values are drawn from patent publication US6359141B2, “Water soluble prodrugs of azole compounds” (Bristol-Myers Squibb Company, priority 1998, dated 2002).
